Target: T1, Lanosterol synthase (Homo sapiens, UniProt P48449)
T1 sequence (P48449 whole entry): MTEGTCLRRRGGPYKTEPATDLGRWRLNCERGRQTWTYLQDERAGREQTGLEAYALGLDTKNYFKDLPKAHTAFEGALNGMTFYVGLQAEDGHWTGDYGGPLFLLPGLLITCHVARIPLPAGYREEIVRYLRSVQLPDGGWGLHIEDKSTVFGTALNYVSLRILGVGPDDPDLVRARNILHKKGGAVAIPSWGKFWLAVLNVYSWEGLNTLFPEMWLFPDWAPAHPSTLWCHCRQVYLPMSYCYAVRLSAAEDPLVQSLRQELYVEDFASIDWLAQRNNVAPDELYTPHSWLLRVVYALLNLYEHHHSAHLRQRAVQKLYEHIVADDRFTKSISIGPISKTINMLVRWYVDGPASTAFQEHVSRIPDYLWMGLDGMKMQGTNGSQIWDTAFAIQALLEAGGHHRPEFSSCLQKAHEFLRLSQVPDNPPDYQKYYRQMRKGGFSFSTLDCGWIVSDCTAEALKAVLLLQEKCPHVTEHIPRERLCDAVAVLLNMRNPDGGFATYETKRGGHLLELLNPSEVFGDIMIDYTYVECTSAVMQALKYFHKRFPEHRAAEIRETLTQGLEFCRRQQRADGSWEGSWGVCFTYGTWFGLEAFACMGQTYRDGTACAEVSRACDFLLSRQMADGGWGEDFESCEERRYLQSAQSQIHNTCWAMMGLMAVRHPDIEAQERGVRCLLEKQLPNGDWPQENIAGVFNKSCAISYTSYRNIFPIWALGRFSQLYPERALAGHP
Experiment: Inhibition of oxidosqualene cyclase

IC50 [nM]	Structure (SMILES)
19.1	CN(C/C=C/COc1ccc(C(=O)c2ccc(Br)cc2)cn1)C1CC1
31.6	CN(CCCCCCOc1ccc(C(=O)c2ccc(Br)cc2)cc1)CC1CC1
7.76	C=CCN(C)CCCCCCOc1ccc2c(c1)S(=O)(=O)C=C2c1ccc(Br)cc1
240	C=CCN(C)CCCCCCOc1ccc2c(c1)c(C)nn2C
